From patent publication US6962912B2, “Substituted pyrazolo[4,3-e]diazepines, pharmaceutical compositions containing them, use as medicinal products and processes for preparing them” (Warner-Lambert LLC, priority 2000, dated 2005) come the findings set out here.

The target in data set [1] is PDE4. Kind of data set: Inhibition of PDE4 (cytosolic enzyme preparation from U937 line), compared with rolipram. Type of data set: biochemical, human. The settings on record: PDE4 enzyme preparation obtained from the U937 line.
The test system of data set [2] is production of TNFα. Kind of data set: in vivo TNFα model in Wistar rats (LPS-induced). The settings on record: oral administration 30 min before i.p. LPS; plasma 90 min after LPS; male Wistar rats. The source says: TNFα is a cytokine which plays a central role in the mechanisms of inflammation. Its production can be induced by an injection of lipopolysaccharide (LPS). It has been shown that the increase in intracellular cAMP, produced in particular by PDE4 inhibitors, decreases the production of TNFα in in vitro and in vivo models. It is thus a matter here of quantifying in vivo the anti-inflammatory potential of the compounds of the invention, administered orally (p.o.) by measuring the inhibition of the production of TNFα in the plasma of rats, these rats having received an intraperitoneal (i.p.) injection of lipopolysaccharide (LPS). The treatment with the compounds of the invention or the vehicle are [sic] administered orally to male Wistar rats, 30 min before the injection of LPS. The rats are sacrificed 90 min after the stimulation with LPS, the blood is collected onto EDTA and the TNFα concentration is measured in each plasma sample. […] References • Chen, Y. L., Le Vraux, V., Giroud, J. P. and Chauvelot-Moachon L. (1994). Anti-tumor necrosis factor properties of non-peptide drugs in acute-phase responses. […] Int. J. Immunopharmacol., 16 (10), 805-816. Model of Eosinophilia in Rats

Each structure is given as a SMILES string.

`CCCn1nc(C(C)CC)c2c1C(=O)NCC(c1ccncc1)=N2` (racemic) [Example 71, (±)3-sec-Butyl-1-propyl-5-pyrid-4-yl-6,7-dihydro-1H-pyrazolo[4,3-e][1,4]diazepin-8-one]: the melting point (commonly the temperature, or range, at which the solid turns liquid) amounted to 110 °C. Also, the IC50 (commonly the concentration at which inhibition is half-maximal) in data set [1] worked out at 0.035 µM. Also, in data set [2], the “inhibition of the production of TNFα in the plasma of rats” value (shortened to “inhibition of the production of TNFα”) is on record as “excellent activity”.
`CCn1nc(C(C)C)c2c1C(=O)NCC(c1ccccc1)=N2` [Example 1, 1-Ethyl-3-isopropyl-5-phenyl-6,7-dihydro-1H-pyrazolo[4,3-e][1,4]diazepin-8-one] displayed a melting point of 157.2 °C. Also, the midpoint of inhibition in data set [1], the IC50, lay at 0.0049 µM. Moreover, the “inhibition of the production of TNFα” value in data set [2] was “excellent activity”.
In turn, `CCn1nc(C(C)C)c2c1C(=S)NCC(c1ccccc1)=N2` [Example 2, 1-Ethyl-3-isopropyl-5-phenyl-6,7-dihydro-1H-pyrazolo[4,3-e][1,4]diazepin-8-thione] showed a melting point of 164 °C. Further, in data set [1], the IC50 was determined as 0.00098 µM. Further, the “inhibition of the production of TNFα” value in data set [2] is reported as “excellent activity”.
In the same order, the values of `CCn1nc(C(C)C)c2c1C(=NC#N)NCC(c1ccccc1)=N2` [Example 3, 1-Ethyl-3-isopropyl-5-phenyl-6,7-dihydro-1H-pyrazolo[4,3-e][1,4]diazepin-8-ylidenecyanamide] are 222 °C, 0.00012 µM and “excellent activity”.
Regarding `CCn1nc(C)c2c1C(=O)NCC(c1ccc(OC)cc1)=N2` [Example 6, 1-Ethyl-5-(4-methoxyphenyl)-3-methyl-6,7-dihydro-1H-pyrazolo[4,3-e][1,4]diazepin-8-one], the melting point stood at 178 °C. The molecule also gave an IC50 in data set [1] of 0.42 µM. Further, the “inhibition of the production of TNFα” value in data set [2] is “excellent activity”.
Molecule `CCn1nc(C)c2c1C(=O)NCC(c1ccc(N)cc1)=N2` [Example 12, 5-(4-Aminophenyl)-1-ethyl-3-methyl-6,7-dihydro-1H-pyrazolo-[4,3-e][1,4]diazepin-8-one] showed a melting point of 212 °C. For the same molecule, the midpoint of inhibition in data set [1], the IC50, lay at 0.1 µM. Besides, in data set [2], the “inhibition of the production of TNFα” value is “excellent activity”.
The matching figures for `CCCn1nc(C)c2c1C(=O)NCC(c1ccccc1)=N2` [Example 15, 3-Methyl-5-phenyl-1-propyl-6,7-dihydro-1H-pyrazolo-[4,3-e][1,4]diazepin-8-one]: 171 °C, 0.52 µM and “excellent activity”.
In the same order, the values of `Cc1nn(CCO)c2c1N=C(c1ccccc1)CNC2=O` [Example 16, 1-(2-Hydroxyethyl)-3-methyl-5-phenyl-6,7-dihydro-1H-pyrazolo[4,3-e][1,4]diazepin-8-one] are 75 °C, 0.42 µM and “excellent activity”.
In the same order, the values of `CCn1nc(C)c2c1C(=S)NCC(c1ccccc1)=N2` [Example 17, 1-Ethyl-3-methyl-5-phenyl-6,7-dihydro-1H-pyrazolo[4,3-e][1,4]diazepin-8-thione] are 203.5 °C, 0.0059 µM and “excellent activity”.
`CCn1nc(C(C)(C)C)c2c1C(=O)NCC(c1ccccc1)=N2` [Example 21, 3-tert-Butyl-1-ethyl-5-phenyl-6,7-dihydro-1H-pyrazolo[4,3-e][1,4]diazepin-8-one] yielded a melting point of 160 °C. The molecule also displayed an IC50 in data set [1] of 0.0026 µM. The “inhibition of the production of TNFα” value in data set [2] is “excellent activity”.
In the same order, the values of `CCn1nc(C)c2c1C(=O)NCC(c1ccc(C)cc1)=N2` [Example 23, 1-Ethyl-3-methyl-5-p-tolyl-6,7-dihydro-1H-pyrazolo[4,3-e][1,4]diazepin-8-one] are 185 °C, 0.042 µM and “excellent activity”.
With `CCn1nc(C)c2c1C(=O)NCC(c1cccc(N)c1)=N2` [Example 24, 5-(3-Aminophenyl)-1-ethyl-3-methyl-6,7-dihydro-1H-pyrazolo[4,3-e][1,4]diazepin-8-one], the melting point was 80 °C. Besides, 0.078 µM corresponded to half-maximal inhibition in data set [1] (IC50). Further, the “inhibition of the production of TNFα” value in data set [2] is listed as “excellent activity”.
The matching figures for `CCn1nc(C(C)(C)C)c2c1C(=S)NCC(c1ccccc1)=N2` [Example 25, 3-tert-Butyl-1-ethyl-5-phenyl-6,7-dihydro-1H-pyrazolo[4,3-e][1,4]diazepin-8-thione]: 230 °C, 0.0024 µM and “excellent activity”.
The matching figures for `CCn1nc(C(C)(C)C)c2c1C(=O)NCC(c1ccc(N)cc1)=N2` [Example 26, 5-(4-Aminophenyl)-3-tert-butyl-1-ethyl-6,7-dihydro-1H-pyrazolo[4,3-e][1,4]diazepin-8-one]: 189 °C, 0.0056 µM and “excellent activity”.
In the same order, the values of `CCn1nc(C)c2c1C(=O)NCC(c1ccc(O)cc1)=N2` [Example 28, 1-Ethyl-5-(4-hydroxyphenyl)-3-methyl-6,7-dihydro-1H-pyrazolo[4,3-e][1,4]diazepin-8-one] are 250 °C, 0.09 µM and “excellent activity”.
`CCn1nc(C)c2c1C(=O)NCC(C1CCCCC1)=N2` [Example 31, 5-Cyclohexyl-1-ethyl-3-methyl-6,7-dihydro-1H-pyrazolo[4,3-e][1,4]diazepin-8-one] came in with a melting point of 50 °C. Further, in data set [1], the IC50 is 0.19 µM. The “inhibition of the production of TNFα” value in data set [2] is recorded as “excellent activity”.
The matching figures for `CCn1nc(C)c2c1C(=O)NCC(c1ccncc1)=N2` [Example 32, 1-Ethyl-3-methyl-5-pyrid-4-yl-6,7-dihydro-1H-pyrazolo[4,3-e][1,4]diazepin-8-one]: 148 °C, 0.13 µM and “excellent activity”.
The matching figures for `CCCCc1nn(CC)c2c1N=C(c1ccccc1)CNC2=O` [Example 34, 3-Butyl-1-ethyl-5-phenyl-6,7-dihydro-1H-pyrazolo[4,3-e][1,4]diazepin-8-one]: 105.4 °C, 0.0047 µM and “excellent activity”.
In the same order, the values of `CCn1nc(C)c2c1C(=NC#N)NCC(c1ccccc1)=N2` [Example 55, 1-Ethyl-3-methyl-5-phenyl-6,7-dihydro-1H-pyrazolo[4,3-e][1,4]diazepin-8-ylidenecyanamide] are 280 °C, 0.0017 µM and “excellent activity”.
For `CCn1nc(C2CCCCC2)c2c1C(=O)NCC(c1ccncc1)=N2` [Example 73, 3-Cyclohexyl-1-ethyl-5-pyrid-4-yl-6,7-dihydro-1H-pyrazolo-[4,3-e][1,4]diazepin-8-one], the melting point fell in the range of 126 to 127 °C. The IC50 in data set [1] was 0.00073 µM. For the same molecule, the “inhibition of the production of TNFα” value in data set [2] is listed as “excellent activity”.
